These results are taken from paper PMC4618141, “Use of In Vitro and Predictive In Silico Models to Study the Inhibition of Cytochrome P4503A by Stilbenes” (PLoS ONE, 2015).

Bounds are passed on as bounds.

This data set concerns the target CYP3A4 (Homo sapiens, UniProt P08684). Description: inhibition of testosterone metabolism in Caco-2/TC7 cells (HPLC).

Sequence of CYP3A4 (P08684 2-503): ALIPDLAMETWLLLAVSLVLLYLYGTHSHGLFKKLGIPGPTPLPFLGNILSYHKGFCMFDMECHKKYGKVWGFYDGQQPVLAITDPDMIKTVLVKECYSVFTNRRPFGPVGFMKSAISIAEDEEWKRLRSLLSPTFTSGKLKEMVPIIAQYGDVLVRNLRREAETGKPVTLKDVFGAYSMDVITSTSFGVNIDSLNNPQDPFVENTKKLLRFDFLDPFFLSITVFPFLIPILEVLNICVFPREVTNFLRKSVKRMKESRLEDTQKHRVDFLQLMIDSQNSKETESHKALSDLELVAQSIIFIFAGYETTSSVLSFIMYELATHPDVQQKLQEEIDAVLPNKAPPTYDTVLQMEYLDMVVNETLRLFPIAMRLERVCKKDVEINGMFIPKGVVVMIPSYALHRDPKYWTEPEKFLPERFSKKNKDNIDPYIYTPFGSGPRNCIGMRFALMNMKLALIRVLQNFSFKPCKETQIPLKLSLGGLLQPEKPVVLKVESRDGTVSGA

Compound `Oc1ccc(/C=C/c2cc(O)cc(O)c2)cc1` [Resveratrol, trans-3,4′,5-trihydroxystilbene] gave an IC50 of under 10 µM.

One may read the IC50 as the concentration needed to halve the response being measured.
